Assay results taken from ChEMBL document CHEMBL3507680, “University of Dundee, Gates Library screen for HepG2 cell viability”.

Experiment: Human HepG2 cell viability assay in 384 well format
Format: toxicity, cell-based
Set-up: dose 125 nL, time 70.5 hour; concentration not given beside the values
Settings: HepG2 cells, read-out: Inhibition

Structure (SMILES) | cytotoxicity at 70.5 h [%]
CCOc1nc2cnccc2n(CC(=O)NCc2ccco2)c1=O | -10.1
O=C(Nc1cc(-c2ccccn2)no1)C1CC1 | 11.7
O=C1CCCCN1CCc1nc(C2(c3ccc(F)cc3)CCOC2)no1 (configuration not stated) | 12.7
CCN(Cc1ccoc1)C(=O)C1CN(C(=O)OC(C)(C)C)C1 | -13.5
c1cnn(Cc2cn3c(n2)CN(Cc2nccs2)CC3)c1 | -3.15
CC(C)c1cc(NC(=O)c2ccncc2)[nH]n1 | 2.62
CCN(CC)S(=O)(=O)N1CCc2nc(C3CCNCC3)ncc2C1 | -4.41
COc1ccccc1OCC(=O)NS(=O)(=O)c1cc(F)ccc1F | -4.75
O=C(COCC1CC1)N1CCCC(n2ccnc2)C1 (configuration not stated) | 5.1
Cc1nnnn1-c1ccc(CC(=O)N2CCOCC(O)C2)cc1 (configuration not stated) | -6.4
O=S(=O)(Cc1nc(C2CC2)no1)c1cc(F)ccc1F | -12.2
CN1CCN(Cc2cscn2)CC(C(=O)N(C)C)C1 (configuration not stated) | 15.4
CN1CCC/C1=N\S(=O)(=O)c1ccc(NC(=O)c2ccc(F)cc2)cc1 | -4.6
NC(=O)C1CCCN1Cc1ccccc1NC(=O)CC(F)(F)F (configuration not stated) | -3.67
Cc1nc2cc(C3CCCCN3C(=O)C3CC3)nn2c(O)c1C (configuration not stated) | -2.34
Cc1ccccc1N1CC2(CCCCN2CC2CC2)CC1=O (configuration not stated) | -3.78
O=C(NCc1csc(-c2cccs2)n1)C1NCCc2[nH]cnc21 (configuration not stated) | -19.8
Cc1cc(CN2CCN(C(=O)C(C(C)C)n3cncn3)CC2)no1 (configuration not stated) | -8.12
O=C(O)c1cc2n(n1)CCCN(C(=O)CCc1c[nH]c3ccccc13)C2 | -16.4
CC(C)(C)C1SCC(=O)Nc2c1c(O)nn2C1CCCC1 (configuration not stated) | -21.9
Cn1cc(CN2CC[C@@H]3O[C@H](C(=O)N4CCOCC4)C[C@@H]32)cn1 | -5.63
COCCN1CCC2(CC1)CC(NCc1ccc(C)s1)c1ccccc12 (configuration not stated) | 2.38
COc1ccccc1N1CCC(CNS(=O)(=O)c2cccs2)C1 (configuration not stated) | -6.04

Structure (SMILES) | cytotoxicity at 70.5 h [%]
c1cc(CN2CCCC3(COCCN(Cc4c[nH]nn4)C3)C2)cs1 (configuration not stated) | -2.64
CC(CNC(=O)N1CCN(CC(F)F)CC1)Cc1cccs1 (configuration not stated) | 1.43
O=C(CNc1cccc(S(=O)(=O)C(F)F)c1)NCc1ccco1 | 11.3
O=C(C1CCCO1)N1CCC(c2nc(-c3ccccc3)n[nH]2)CC1 (configuration not stated) | 1.35
COc1cc(N2CCC3(CC2)CCN(c2cccnc2)C3=O)ncn1 | -9.9
Cc1cccc(CN2CCc3ncnc(C)c3CC2)n1 | -2.78
O=C(NCC1CCOC1)Nc1ccc(Oc2cccc(F)c2)nc1 (configuration not stated) | -10.7
Clc1ccc(N2CCN(CCCN3CCCCC3)CC2)nc1 | 7.35
Cc1cccc2[nH]c(C3CCN(C(=O)c4ccc[nH]4)CC3)nc12 | -6.62
COc1cccc(F)c1-c1nc2c([nH]1)c(C1CC1)nn2C | 10.5
Cc1cccc(NC2CCN(C(=O)Nc3cccc4[nH]ccc34)CC2)n1 | -8.86
COCCN(C/C=C/c1ccccc1)Cc1ncc[nH]1 | -5.41
Cc1cc(C(=O)NCc2cccnc2N2CCc3ccccc3C2)[nH]n1 | -3.47
Cc1cc(C)cc(-c2ccc(CC3(C(=O)O)CCOCC3)cc2)c1 | 31.5
NC(=O)NC1CCN(Cc2ccc3c(c2)CCC3)CC1 | -5.94
CNC(=O)[C@@H]1C[C@H]2CN(Cc3ccc(C)o3)C[C@H]2N1C(C)=O | -0.0424
O=C([C@H]1C[C@H]2OCC[C@H]2N(Cc2ccoc2)C1)N1CCCO1 | -5.69
Cc1ccnc(C(NC(=O)c2sc(C)nc2C)C2CC2)n1 (configuration not stated) | -2.09
CS(=O)(=O)Nc1cccc(CNC(=O)CCNC(=O)c2cccs2)c1 | 23.6
Cc1cc(NC(=O)NCc2cccnc2OC(C)C)no1 | -0.0866
Cc1ccc(C(=O)NCCNC(=O)c2cncnc2C)cc1F | -11.3
c1cnc(NCCCOC2CCOCC2)nc1 | 4.17
Cn1cc(CCCNS(=O)(=O)N2CCCC2c2ccco2)cn1 (configuration not stated) | -2.37

Structure (SMILES) | cytotoxicity at 70.5 h [%]
c1csc(CN2Cc3[nH]nc(COCC4CC4)c3C2)c1 | -8.6
O=C(CCNC(=O)N1CCC(c2ccccc2)C1)N1CCCCC1 (configuration not stated) | -13
Cc1ccc(N2CCO[C@H]3CN(Cc4cccs4)C[C@H]32)nn1 | 8.57
Cc1n[nH]cc1CNCC1(c2cccc(F)c2)CCOCC1 | -5.63
CC(NC(=O)N1CCC1)c1ccc(S(C)(=O)=O)cc1 (configuration not stated) | -5.1
CCOC(C)c1nc(CN2CCC(CNC(C)=O)CC2)cs1 (configuration not stated) | -2.36
CC(Oc1cc(Cl)cc(Cl)c1)C(=O)NCCS(N)(=O)=O (configuration not stated) | -4
Cc1nc(NCC2CC2)nc2c1COCC21CCN(CC(=O)N(C)C)C1 (configuration not stated) | -14.8
CC(=O)N1N=C(c2cccs2)OC1C(=O)NCc1ccc(C)o1 (configuration not stated) | -1.09
CS(=O)(=O)NCc1ncn2c1CN(Cc1cccs1)CCC2 | -7.97
Cc1ccc(N2CCC3(CCN(C(=O)c4ccnnc4)CC3)CC2)nn1 | 2.95
CS(=O)(=O)N1CCC2(CCCN(c3ncc(F)cn3)C2)C1 (configuration not stated) | -7.4
CN1CCCC(c2nc3c([nH]2)CC(C)(C)CNC3=O)C1 (configuration not stated) | 13.5
COc1cc(F)c(C(=O)N2C[C@@H](CN(C)CCO)[C@@H](CO)C2)c(F)c1 | -2.86
O=C(Nc1ccc(Cl)cc1)c1nn(C2CCS(=O)(=O)C2)c2c1CCCC2 (configuration not stated) | -19.1
Cc1ncnc2c1CCN(C(=O)c1cnccn1)CC2 | -0.588
COc1ncc(CN2CC[C@@](C)(O)[C@H](Oc3cccc(F)c3)C2)cn1 | 5.46
COCCN1CCO[C@@H]2CN(C(=O)c3ccc4[nH]ccc4c3)CC[C@@H]2C1 | -11.1
O=C([C@H]1CCCO1)N1CCCC2(COCCN(c3ccccc3)C2)C1 (some centres not stated) | -10.4
CNC(=O)c1noc(CN2CC[C@](C)(O)[C@H](C)C2)n1 | -8.07
Cn1cc(CN2CC[C@@H]3[C@@H](CCC(=O)N3CCc3ccccc3)C2)cn1 | -0.863
Cn1cnc2c1C(COCC1CC1)CN(C(=O)c1cccs1)C2 (configuration not stated) | 8.88
Cc1nccnc1N1Cc2cnn(Cc3ccc(F)cc3)c2C1 | -0.0825

Structure (SMILES) | cytotoxicity at 70.5 h [%]
Cc1ccc(CN2C[C@@H]3CN(c4ncc(F)cn4)C[C@@H]3C2)cc1 | -1.01
CC(=O)N1CCC(C(=O)N(C)[C@@H]2CCC[C@@H](N3CCCC3)[C@@H]2O)CC1 | 41.3
Cc1nc(C)n(CC2CCCN2CCOc2ccc(F)cc2)n1 (configuration not stated) | -9.83
O=C(c1cccc(CNC/C=C/c2ccccc2)c1)N1CCCC1 | 4.26
O=C(NC1CCCc2c1[nH]c1ccc(F)cc21)c1n[nH]c2c1CCC2 (configuration not stated) | 26.4
CCOCc1nnc(NCc2ccsc2)o1 | -3.37
Cc1nc(N2CCCC2)ncc1-c1cc(O)n2ncnc2n1 | -2.97
CC(=O)N1CCO[C@@H]2CN(S(=O)(=O)C3CC3)CC[C@@H]2C1 | -0.0787
c1cnc(N2CCO[C@H]3CN(Cc4ccsc4)C[C@H]32)nc1 | -14.2
COc1ccccc1C(=O)N1CC(Cc2nccc3ccn(C)c23)C1 | -0.41
Cc1cc(N(C)Cc2ncc[nH]2)nc(-c2cccnc2)n1 | -11.2
CCN(CC)C1CCN(C(=O)NCc2cccc(NC(C)=O)c2)C1 (configuration not stated) | -6.18
CC(=O)N(C)CC(=O)NC1(c2ccc(F)cc2)CCCC1 | -2.78
CCOCCn1c(=O)n(CCC=C(C)C)c2cc(C(=O)O)cnc21 | -4.64
Cc1nn(C)c(C)c1-c1ccc(=O)n(C(C)C(=O)NC2CC2)n1 (configuration not stated) | 17.4
CN1CCN(Cc2cn3c(n2)CN(C(=O)c2ccccn2)CC3)CC1 | -2.89
O=S(=O)(c1ccc(Cl)s1)N1CCN(Cc2nc(-c3ccco3)cs2)CC1 | -13.8
CC(=O)N[C@@H]1CN(Cc2ccc(F)cc2F)C[C@H]1c1ccc(C)o1 | 11.7
O=C(CN(CC(O)c1ccc(F)cc1)C1CC1)NCc1cccs1 (configuration not stated) | -114
O=c1[nH]nc2c(N3CCOCC3)nccn12 | -11.6
CCc1nc(C)cn1C(=O)Nc1ccc(C)cc1 | -1.55
C[C@H](NS(C)(=O)=O)C(=O)NCc1cc(-c2ccco2)n[nH]1 | -12.9
CN1CCN(c2ccc(F)cc2NC(=O)NCCn2ccnc2)CC1 | -0.0867

Structure (SMILES) | cytotoxicity at 70.5 h [%]
Cc1ccccc1Cc1cnc(NC(=O)C2CNC(=O)N2)s1 (configuration not stated) | 2.49
CN1CCOC(CNCc2c(Cl)nc3ccccn23)C1 (configuration not stated) | -19.2
Cc1cccc2c1cnn2CCCNC(=O)C(C)C | -10
CC(C1CCN(Cc2cnn(C)c2C2CC2)CC1)N1CCCC1 (configuration not stated) | -7.31
CC(C)Nc1nc2c(c(NC3CC3)n1)CN(C(=O)Cc1ccsc1)CC2 | 3.26
Cc1cn[nH]c1C1COCCN1Cc1cscn1 (configuration not stated) | -13.2
C1CC(c2noc(C3CC3)n2)CN(Cc2noc(C3CC3)n2)C1 (configuration not stated) | -7.62
CC(=O)N[C@@H]1CN(Cc2oc3ccccc3c2C)C[C@H]1c1ccc(C)o1 | -7.22
CC(NC(=O)COCC(F)(F)F)c1nnc2n1CCCCC2 (configuration not stated) | -16.3
CC1CCN(c2ncc3c(n2)CN(Cc2cccc(F)c2)C3=O)CC1 | -0.149
CN(C)c1ncnc2c1CCN(c1cc(C(F)(F)F)ncn1)CC2 | -1.26
CN1CCCC1c1cncc(C(=O)NCCN2CCCC2)n1 (configuration not stated) | -14.2
CN(C)CCCNC(=O)c1ccccc1NC(=O)c1ccccc1Cl | 22.1
CN(Cc1ccsc1)C(=O)Nc1cccnc1N1CCCC1 | 23
CCN(CC)C(=O)c1cccc(Cn2nc(C)cc2C)c1 | -8.82
CS(=O)(=O)NCC1CCCN(C(=O)c2ccc(Cl)o2)C1 (configuration not stated) | -8.13
CN1CCN(C)C(CNc2c(C#N)cnc3ccc(Cl)cc23)C1 (configuration not stated) | -8.13
Cc1nccc(N2CC[C@@H]3[C@@H](CCC(=O)N3CCc3ccccc3)C2)n1 | -6.49
Cc1noc(C)c1CN1CCCC1c1nnc2ccccn12 (configuration not stated) | -23.7
CC(C)n1ccnc1C1CCN(C(=O)c2ccc(SCCO)cc2)CC1 | -8.09
